According to patent US9474790B2, “Stable, protracted GLP-1/glucagon receptor co-agonists for medical use” (Novo Nordisk A/S, priority 2013, dated 2016):
pIC50: −log10 of the molar value. Numbered stars: 1 amine (or outer) side, 2 acyl side, 3 side chain; on linkers, the order of the positions; unused ones are H or OH. Square brackets hold non-standard residues; d marks the D form. Side chains are listed from the residue outwards. Peptide text beside a SMILES is read from it. * marks the point of attachment. C18 diacid = O=C(O)CCCCCCCCCCCCCCCCC(=O)*; γGlu = O=C(O)[C@H](CCC(=O)[*:2])N[*:1]; AEEA = NCCOCCOCC(=O)O; Aib = CC(C)(N)C(=O)O

Experiments:
[1] = Thioflavin T (ThT) fibrillation assay for physical stability; assay type: physicochemical; conditions: 250 μM in 10 mM HEPES buffer, pH 7.5, 37° C., shaking 960 rpm
From the text: The purpose of this assay was to assess the physical stability of the glucagon derivatives of the invention in aqueous solutions.
Low physical stability of a peptide may lead to amyloid fibril formation, which is observed as well-ordered, thread-like macromolecular structures in the sample, which eventually may lead to gel formation. This has traditionally been measured by visual inspection of the sample. However, that kind of measurement is very subjective and depending on the observer. Therefore, the application of a small molecule indicator probe is much more advantageous. Thioflavin T (ThT) is such a probe and has a distinct fluorescence signature when binding to fibrils [Naiki et al; Anal. Biochem. 1989 177 244-249; LeVine; Methods. Enzymol. 1999 309 274-284].
The time course for fibril formation can be described by a sigmoidal curve with the following expression [Nielsen et al; Biochemistry 2001 40 6036-6046]:
Here, as depicted in FIG. 1, F is the ThT fluorescence at the time t. The constant t0 is the time needed to reach 50% of maximum fluorescence. The two important parameters describing fibril formation are the lag-time calculated by t0−2τ and the apparent rate constant kapp 1/τ.
Samples were prepared freshly before each assay. Each sample composition is described in the legends. The pH of the sample was adjusted to the desired value using appropriate amounts of concentrated NaOH and HCl. Thioflavin T was added to the samples from a stock solution in H2O to a final concentration of 1 μM.
Sample aliquots of 200 μl (250 μM of the glucagon derivative/analogue in 10 mM HEPES buffer, pH 7.5) were placed in a 96 well microtiter plate (Packard OptiPlate™-96, white polystyrene). Usually, four or eight replica of each sample (corresponding to one test condition) were placed in one column of wells. The plate was sealed with Scotch Pad (Qiagen).
Incubation at given temperature, shaking and measurement of the ThT fluorescence emission were done in a Fluoroskan Ascent FL fluorescence plate reader (Thermo Labsystems). The temperature was set to 37° C. and the plate was incubated with orbital shaking adjusted to 960 rpm with an amplitude of 1 mm. Fluorescence measurement was done using excitation through a 444 nm filter and measurement of emission through a 485 nm filter.
Each run was initiated by incubating the plate at the assay temperature for 10 min. The plate was measured every 20 minutes for a desired period of time. Between each measurement, the plate was shaken and heated as described.
After completion of the ThT assay the four or eight replica of each sample was pooled and centrifuged at 20000 rpm for 30 minutes at 18° C. The supernatant was filtered through a 0.22 μm filter and an aliquot was transferred to a HPLC vial.
The concentration of peptide in the initial sample and in the filtered supernatant was determined by reverse phase HPLC using an appropriate standard as reference. The percentage fraction the concentration of the filtered sample constituted of the initial sample concentration was reported as the recovery.
The measurement points were saved in Microsoft Excel format for further processing and curve drawing and fitting was performed using GraphPad Prism. The background emission from ThT in the absence of fibrils was negligible. The data points were typically a mean of four or eight samples.
The data set may be fitted to Eq. (1).

[2] = biological target: T1, human GLP-1 receptor (Homo sapiens, UniProt P43220); test: GLP-1 receptor binding, 125I-GLP-1 displacement SPA on isolated membranes; conditions: displacement of 125I-GLP-1 from membranes; read-out: IC50 GLP-1R
T1 construct: expressed in transfected cells; host or cells: BHK cells (parent BHKTS13), clone FCW467-12A/KZ10-1, with CRE luciferase
T1 sequence (P43220 24-463): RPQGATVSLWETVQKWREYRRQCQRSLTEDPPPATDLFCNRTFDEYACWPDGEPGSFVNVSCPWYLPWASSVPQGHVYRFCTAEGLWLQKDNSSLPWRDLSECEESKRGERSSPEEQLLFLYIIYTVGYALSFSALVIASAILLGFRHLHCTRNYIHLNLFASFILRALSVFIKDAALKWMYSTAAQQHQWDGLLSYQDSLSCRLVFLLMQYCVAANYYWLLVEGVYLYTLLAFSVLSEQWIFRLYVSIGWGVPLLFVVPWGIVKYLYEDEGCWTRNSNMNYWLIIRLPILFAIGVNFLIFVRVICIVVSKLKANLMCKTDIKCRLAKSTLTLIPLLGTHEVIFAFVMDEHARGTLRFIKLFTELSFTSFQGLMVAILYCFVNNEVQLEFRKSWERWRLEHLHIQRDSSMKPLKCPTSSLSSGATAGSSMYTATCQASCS
Experimental: The purpose of this assay was to test the in vitro receptor binding activity of the glucagon derivatives of the invention. The receptor binding is a measure of affinity of a compound for the human GLP-1 receptor.
The receptor binding of each compound to the human GLP-1 receptor was measured in a displacement binding assay. In this type of assay a labelled ligand (in this case 125I-GLP-1) is bound to the receptor. Each derivative was added in a series of concentrations to isolated membranes containing the human GLP-1 receptor and displacement of the labelled ligand was monitored. The receptor binding was reported as the concentration at which half of the labelled ligand was displaced from the receptor, the IC50 value.
In order to test the binding of the derivatives to albumin, the assay may be performed in a very low concentration of serum albumin (max. 0.001% final assay concentration) as well as in the presence of a higher concentration of serum albumin (2.0% final assay concentration). An increase of the IC50 value, in the presence of serum albumin indicates an affinity to serum albumin and represents a method to predict a protracted pharmacokinetic profile of the test substance in animal models.
The following chemicals were used in the assay: DMEM w/o phenol red (Gibco 11880-028), Pen/strep (Invitrogen 15140-122), G418 (Invitrogen 10131-027), 1 M Hepes (Gibco 15630), EDTA (Invitrogen 15575-038), PBS (Invitrogen 14190-094), fetal calf serum (Invitrogen 16140-071), EGTA, MgCl2 (Merck 1.05832.1000), Tween 20 (Amresco 0850C335), SPA particles (wheat germ agglutinin (WGA) SPA beads, Perkin Elmer RPNQ0001), [125I]-GLP-1]-(7-36)NH2 (produced in-house), OptiPlate™-96 (Perkin Elmer).
Buffer 1 consisted of 20 mM Na-HEPES plus 10 mM EDTA and pH was adjusted to 7.4.
Buffer 2 consisted of 20 mM Na-HEPES plus 0.1 mM EDTA and pH was adjusted to 7.4.
Assay buffer consisted of 50 mM HEPES supplemented with 5 mM EGTA, 5 mM MgCl2, 0.005% Tween 20 and pH was adjusted to 7.4.
The cells used in this assay (clone FCW467-12A) were BHK cells with BHKTS13 as a parent cell line. The cells express the human GLP-1 receptor.
The cells were grown at 5% CO2 in DMEM, 10% fetal calf serum, 1% Pen/Strep (Penicillin/Streptomycin) and 1.0 mg/ml of the selection marker G418. To make a membrane preparation the cells were grown to approximately 80% confluence. The cells were washed twice in phosphate-buffered saline and harvested. The cells were pelleted using a brief centrifugation and the cell pellet was kept on ice. The cell pellet was homogenised with ULTRA-THURRAX dispersing instrument for 20-30 sec in a suitable amount of buffer 1 (e.g. 10 ml). The homogenate was centrifuged for 15 min. The pellet was re-suspended (homogenised) in 10 ml buffer 2 and centrifuged. This step was repeated once more. The resulting pellet was re-suspended in buffer 2 and the protein concentration was determined. The membranes were aliquoted and stored at minus 80° C.
1. For the receptor binding assay, 50 μl of the assay buffer was added to each well of an assay plate.
2. Test compounds were serially diluted to give the following concentrations: 8×10EE-7 M, 8×10EE-8 M, 8×10EE-9 M, 8×10EE-10 M, 8×10EE-11 M, 8×10EE-12 M and 8×10EE-13 M. Twenty-five μl were added to appropriate wells in the assay plate.
3. Cell membrane aliquots were thawed and diluted to their working concentration. Fifty μl were added to each well in the assay plate.
4. WGA SPA beads were suspended in assay buffer at 20 mg/ml. The suspension was diluted to 10 mg/ml in assay buffer just prior to addition to the assay plate. Fifty μl were added to each well in the assay plate.
5. The incubation was started by adding 25 μl of 480 pM solution of [125I]-GLP-1]-(7-36)NH2 to each well of the assay plate. A 25 μl aliquot was reserved for measuring total counts/well.
6. The assay plate was incubated for 2 h at 30° C.
7. The assay plate was centrifuged for 10 min.
8. The assay plate was read in a Perkin Elmer TopCount NXT instrument. […]

## CC(C)C[C@H](NC(=O)[C@H](CC(C)C)NC(=O)[C@H](Cc1c[nH]c2ccccc12)NC(=O)[C@H](CCC(N)=O)NC(=O)[C@@H](NC(=O)[C@H](Cc1ccccc1)NC(=O)[C@H](CCC(=O)O)NC(=O)[C@H](CCCNC(=N)N)NC(=O)[C@H](C)NC(=O)[C@H](C)NC(=O)[C@H](CCCNC(=N)N)NC(=O)[C@H](CO)NC(=O)[C@H](CC(=O)O)NC(=O)[C@H](CC(C)C)NC(=O)[C@H](Cc1ccc(O)cc1)NC(=O)[C@H](CCCCN)NC(=O)[C@H](CO)NC(=O)[C@H](CC(C)C)NC(=O)[C@H](CC(=O)O)NC(=O)[C@H](CO)NC(=O)[C@@H](NC(=O)[C@H](Cc1ccccc1)NC(=O)[C@@H](NC(=O)CNC(=O)[C@H](CCC(N)=O)NC(=O)C(C)(C)NC(=O)[C@@H](N)Cc1c[nH]cn1)[C@@H](C)O)[C@@H](C)O)C(C)C)C(=O)N[C@@H](CC(N)=O)C(=O)N[C@@H](CCCCNC(=O)CC[C@H](NC(=O)CC[C@H](NC(=O)COCCOCCNC(=O)COCCOCCNC(=O)CC[C@H](NC(=O)CCCCCCCCCCCCCCCCC(=O)O)C(=O)O)C(=O)O)C(=O)O)C(N)=O [Example 9, N^ε29-[(4S)-4-carboxy-4-[[(4S)-4-carboxy-4-[[2-[2-[2-[[2-[2-[2-[[(4S)-4-carboxy-4-(17-carboxyheptadecanoylamino)butanoyl]amino]ethoxy]ethoxy]acetyl]amino]ethoxy]ethoxy]acetyl]amino]butanoyl]amino]butanoyl]-[Aib2,Leu10,Ala18,Arg20,Glu21,Leu27,Lys29]-Glucagon amide] (H-H[Aib]QGTFTSDLSKYLDSRAAREFVQWLLNK([γGlu-γGlu-AEEA-AEEA-γGlu-C18 diacid])-NH2; N-terminus assumed)
[1]
  THT assay Lag time (Ex. 76): 8 h
[2]
  pIC50: 9.70

## CC(C)C[C@H](NC(=O)[C@H](Cc1ccc(O)cc1)NC(=O)[C@H](CCCCN)NC(=O)[C@H](CO)NC(=O)[C@H](CC(C)C)NC(=O)[C@H](CC(=O)O)NC(=O)[C@H](CO)NC(=O)[C@@H](NC(=O)[C@H](Cc1ccccc1)NC(=O)[C@@H](NC(=O)CNC(=O)[C@H](CCC(N)=O)NC(=O)C(C)(C)NC(=O)[C@@H](N)Cc1c[nH]cn1)[C@@H](C)O)[C@@H](C)O)C(=O)N[C@@H](CC(=O)O)C(=O)N[C@@H](C)C(=O)N[C@@H](CCCNC(=N)N)C(=O)N[C@@H](CCCNC(=N)N)C(=O)N[C@@H](C)C(=O)N[C@@H](CCCNC(=N)N)C(=O)N[C@@H](CC(=O)O)C(=O)N[C@@H](Cc1ccccc1)C(=O)N[C@H](C(=O)N[C@@H](CCC(N)=O)C(=O)N[C@@H](Cc1c[nH]c2ccccc12)C(=O)N[C@@H](CC(C)C)C(=O)N[C@@H](CC(C)C)C(=O)N[C@@H](CCCCNC(=O)COCCOCCNC(=O)COCCOCCNC(=O)CC[C@H](NC(=O)CC[C@H](NC(=O)CC[C@H](NC(=O)CCCCCCCCCCCCCCCCC(=O)O)C(=O)O)C(=O)O)C(=O)O)C(=O)N[C@H](C(N)=O)[C@@H](C)O)C(C)C [Example 58, N^ε28-[2-[2-[2-[[2-[2-[2-[[(4S)-4-carboxy-4-[[(4S)-4-carboxy-4-[[(4S)-4-carboxy-4-(17-carboxyheptadecanoylamino)butanoyl]amino]butanoyl]amino]butanoyl]amino]ethoxy]ethoxy]acetyl]amino]ethoxy]ethoxy]acetyl]-[Aib2,Leu10,Ala16,Arg20,Leu27,Lys28]-Glucagon amide] (H-H[Aib]QGTFTSDLSKYLDARRARDFVQWLLK([AEEA-AEEA-γGlu-γGlu-γGlu-C18 diacid])T-NH2; N-terminus assumed)
[2]
  pIC50: 9.70

## CC(C)C[C@H](NC(=O)[C@H](Cc1ccc(O)cc1)NC(=O)[C@H](CCCCN)NC(=O)[C@H](CO)NC(=O)[C@@H](NC(=O)[C@H](CC(=O)O)NC(=O)[C@H](CO)NC(=O)[C@@H](NC(=O)[C@H](Cc1ccccc1)NC(=O)[C@@H](NC(=O)CNC(=O)[C@H](CCC(N)=O)NC(=O)C(C)(C)NC(=O)[C@@H](N)Cc1c[nH]cn1)[C@@H](C)O)[C@@H](C)O)C(C)C)C(=O)N[C@@H](CC(=O)O)C(=O)N[C@@H](C)C(=O)N[C@@H](CCCNC(=N)N)C(=O)N[C@@H](CCCNC(=N)N)C(=O)N[C@@H](C)C(=O)N[C@@H](CCC(N)=O)C(=O)N[C@@H](CC(=O)O)C(=O)N[C@@H](Cc1ccccc1)C(=O)N[C@H](C(=O)N[C@@H](CCC(N)=O)C(=O)N[C@@H](Cc1c[nH]c2ccccc12)C(=O)N[C@@H](CC(C)C)C(=O)N[C@@H](CC(C)C)C(=O)N[C@@H](CCCCNC(=O)COCCOCCNC(=O)COCCOCCNC(=O)CC[C@H](NC(=O)CC[C@H](NC(=O)CC[C@H](NC(=O)CCCCCCCCCCCCCCCCC(=O)O)C(=O)O)C(=O)O)C(=O)O)C(=O)N[C@H](C(N)=O)[C@@H](C)O)C(C)C [Example 70, N^ε28-[2-[2-[2-[[2-[2-[2-[[(4S)-4-carboxy-4-[[(4S)-4-carboxy-4-[[(4S)-4-carboxy-4-(17-carboxyheptadecanoylamino)butanoyl]amino]butanoyl]amino]butanoyl]amino]ethoxy]ethoxy]acetyl]amino]ethoxy]ethoxy]acetyl]-[Aib2,Val10,Ala16,Leu27,Lys28]-Glucagon amide] (H-H[Aib]QGTFTSDVSKYLDARRAQDFVQWLLK([AEEA-AEEA-γGlu-γGlu-γGlu-C18 diacid])T-NH2)
[2]
  pIC50: 9.70
